The series relates to rodent lifetime carcinogenesis bioassay, tumor incidence TD50. Kind of series: chronic cancer bioassays in animals – CPDB, compiled studies (AID 1745844).

Drawing on PubChem BioAssay AID1745844 (Carcinogenic Potency Database (CPDB), 2022), this text covers TD50 and carcinogen call for five compounds.

SMILES strings stand for the structures. Calls of active or inactive are those of the source. The rule behind the calls is not given here.

For `CCOC(=O)/C(Cl)=N/Nc1ccccc1`, the TD50 is 20200 mg/kg/day (inactive) (mouse, strain B6C3F1, females, in feed, site: pituitary gland, lesion: adenoma, NOS, dosed 103 weeks, study length 104 weeks); 86500 mg/kg/day (mouse, strain B6C3F1, females, in feed, site: uterus, lesion: endometrial stromal polyp, dosed 103 weeks, study length 104 weeks); 7160 mg/kg/day (inactive) (mouse, strain B6C3F1, males, in feed, site: lung, lesion: alveolar/bronchiolar adenoma, dosed 103 weeks, study length 104 weeks); 11900 mg/kg/day (inactive) (rat, strain Fischer 344, females, in feed, site: adrenal gland, lesion: cortical adenoma, dosed 103 weeks, study length 105 weeks); 29500 mg/kg/day (rat, strain Fischer 344, females, in feed, site: any site (literature study), lesion: several types, types named in the paper, dosed 103 weeks, study length 105 weeks); 516000 mg/kg/day (rat, strain Fischer 344, males, in feed, site: liver, lesion: hepatocellular adenoma + hepatocellular carcinoma + neoplastic nodule, dosed 103 weeks, study length 105 weeks). In addition, the carcinogen call (rat, strain Fischer 344, males, in feed, site: any site (literature study), lesion: several types, types named in the paper, dosed 103 weeks, study length 105 weeks) was “negative (inactive)”.
In the case of `O=C(Nc1ccc2c(c1)Cc1ccccc1-2)C(F)(F)F`, the TD50 runs as follows: (rat, strain Buffalo, females, in feed, site: ear duct, lesion: squamous-cell carcinoma, dosed 53 weeks, study length 54 weeks) 4.94 mg/kg/day; (rat, strain Buffalo, females, in feed, site: liver, lesion: hepatoma, dosed 53 weeks, study length 54 weeks) 1.9 mg/kg/day; (rat, strain Buffalo, females, in feed, site: mammary gland, lesion: adenocarcinoma, dosed 53 weeks, study length 54 weeks) 1.62 mg/kg/day.
Consider `O=[N+]([O-])c1ccc(Cl)c([N+](=O)[O-])c1`, for which the TD50 is, setting by setting: (mouse, strain CD-1 HaM/ICR, females, in feed, site: any site (literature study), lesion: several types, types named in the paper, dosed 77 weeks, study length 94 weeks) 124 mg/kg/day (inactive); (mouse, strain CD-1 HaM/ICR, females, in feed, site: liver, lesion: several types, types named in the paper, dosed 77 weeks, study length 94 weeks) 1520 mg/kg/day (inactive); (mouse, strain CD-1 HaM/ICR, females, in feed, site: lung, lesion: several types, types named in the paper, dosed 77 weeks, study length 94 weeks) 150 mg/kg/day (inactive); (mouse, strain CD-1 HaM/ICR, males, in feed, site: any site (literature study), lesion: several types, types named in the paper, dosed 77 weeks, study length 94 weeks) 255 mg/kg/day (inactive); (mouse, strain CD-1 HaM/ICR, males, in feed, site: liver, lesion: several types, types named in the paper, dosed 77 weeks, study length 94 weeks) 365 mg/kg/day (inactive); (mouse, strain CD-1 HaM/ICR, males, in feed, site: lung, lesion: several types, types named in the paper, dosed 77 weeks, study length 94 weeks) 541 mg/kg/day (inactive). For the same compound, where the note is “rat, strain Charles River CD (Sprague-Dawley), males, in feed, site: any site (literature study), lesion: several types, types named in the paper, dosed 77 weeks, study length 103 weeks”, the TD50 was 12.3 mg/kg/day (inactive). The carcinogen call (rat, strain Charles River CD (Sprague-Dawley), males, in feed, site: liver, lesion: several types, types named in the paper, dosed 77 weeks, study length 103 weeks) is “negative (inactive)”.
As to `NN`, the TD50 is 14 mg/kg/day (hamster, strain Syrian Golden, males, inhaled, site: colon, lesion: adenocarcinoma, dosed 52 weeks, study length 104 weeks); 70.5 mg/kg/day (hamster, strain Syrian Golden, males, inhaled, site: colon, lesion: leiomyoma, dosed 52 weeks, study length 104 weeks); 70.5 mg/kg/day (hamster, strain Syrian Golden, males, inhaled, site: colon, lesion: papilloma, dosed 52 weeks, study length 104 weeks); 4.16 mg/kg/day (hamster, strain Syrian Golden, males, inhaled, site: nasal cavity, lesion: adenomatous polyp, dosed 52 weeks, study length 104 weeks); 37.6 mg/kg/day (hamster, strain Syrian Golden, males, inhaled, site: stomach, lesion: basal-cell carcinoma, dosed 52 weeks, study length 104 weeks); 17.5 mg/kg/day (hamster, strain Syrian Golden, males, inhaled, site: thyroid gland, lesion: parafollicular-cell adenoma, dosed 52 weeks, study length 104 weeks). Also, the TD50 (mouse, strain Bor:NMRI, SPF-bred NMRI, females, in drinking water, site: any site (literature study), lesion: benign tumor, dosed 104 weeks, study length 104 weeks) is 58.5 mg/kg/day (inactive); the TD50 (mouse, strain C57BL/6, females, inhaled, site: lung, lesion: adenoma, dosed 52 weeks, study length 117 weeks) stood at 7.78 mg/kg/day; the TD50 (mouse, strain Swiss, females, by gavage, site: lung, lesion: one or several types, types not named, dosed 40 weeks, study length 55 weeks) is 5.67 mg/kg/day; the TD50 (mouse, strain Swiss, females, in drinking water, site: lung, lesion: adenocarcinoma, dosed 113 weeks, study length 113 weeks) came to 9 mg/kg/day; the TD50 (mouse, strain Swiss, females, in drinking water, site: lung, lesion: adenoma, dosed 113 weeks, study length 113 weeks) worked out at 2.81 mg/kg/day; the TD50 (mouse, strain Swiss, females, in drinking water, site: lung, lesion: several types, types named in the paper, dosed 113 weeks, study length 113 weeks) was 2.54 mg/kg/day. The TD50 is 9.52 mg/kg/day (mouse, strain Swiss, males, in drinking water, site: all sites, lesion: malignant lymphoma, dosed 113 weeks, study length 113 weeks); 29.8 mg/kg/day (mouse, strain Swiss, males, in drinking water, site: liver, lesion: several types, types named in the paper, dosed 113 weeks, study length 113 weeks); 6.19 mg/kg/day (mouse, strain Swiss, males, in drinking water, site: lung, lesion: adenocarcinoma, dosed 113 weeks, study length 113 weeks); 2.77 mg/kg/day (mouse, strain Swiss, males, in drinking water, site: lung, lesion: adenoma, dosed 113 weeks, study length 113 weeks); 2.2 mg/kg/day (mouse, strain Swiss, males, in drinking water, site: lung, lesion: several types, types named in the paper, dosed 113 weeks, study length 113 weeks); 26.4 mg/kg/day (rat, strain Fischer 344, females, inhaled, site: lung, lesion: bronchiolar adenoma, dosed 52 weeks, study length 130 weeks). Moreover, the TD50 is 9.2 mg/kg/day (rat, strain Fischer 344, females, inhaled, site: nasal cavity, lesion: adenocarcinoma, dosed 52 weeks, study length 130 weeks); 0.758 mg/kg/day (rat, strain Fischer 344, females, inhaled, site: nasal cavity, lesion: adenomatous polyp, dosed 52 weeks, study length 130 weeks); 13.1 mg/kg/day (rat, strain Fischer 344, females, inhaled, site: nasal cavity, lesion: squamous-cell carcinoma, dosed 52 weeks, study length 130 weeks); 8.72 mg/kg/day (rat, strain Fischer 344, females, inhaled, site: nasal cavity, lesion: squamous-cell papilloma, dosed 52 weeks, study length 130 weeks); 6.56 mg/kg/day (rat, strain Fischer 344, females, inhaled, site: nasal cavity, lesion: villous polyp, dosed 52 weeks, study length 130 weeks); 6.1 mg/kg/day (rat, strain Fischer 344, males, inhaled, site: lung, lesion: bronchiolar adenoma, dosed 52 weeks, study length 130 weeks). Also, the TD50 runs as follows: (rat, strain Fischer 344, males, inhaled, site: nasal cavity, lesion: adenomatous polyp, dosed 52 weeks, study length 130 weeks) 0.194 mg/kg/day; (rat, strain Fischer 344, males, inhaled, site: nasal cavity, lesion: squamous-cell carcinoma, dosed 52 weeks, study length 130 weeks) 6.12 mg/kg/day; (rat, strain Fischer 344, males, inhaled, site: nasal cavity, lesion: squamous-cell papilloma, dosed 52 weeks, study length 130 weeks) 6.1 mg/kg/day; (rat, strain Fischer 344, males, inhaled, site: nasal cavity, lesion: villous polyp, dosed 52 weeks, study length 130 weeks) 1.36 mg/kg/day; (rat, strain Fischer 344, males, inhaled, site: thyroid gland, lesion: carcinoma, dosed 52 weeks, study length 130 weeks) 1.6 mg/kg/day; (rat, strain Wistar, females, in drinking water, site: liver, lesion: hepatocellular carcinoma, dosed 157 weeks, study length 157 weeks) 129 mg/kg/day. Further, the TD50 (rat, strain Wistar, females, in drinking water, site: liver, lesion: several types, types named in the paper, dosed 157 weeks, study length 157 weeks) is 41.6 mg/kg/day; the TD50 (rat, strain Wistar, females, in drinking water, site: mammary gland, lesion: malignant tumor, dosed 157 weeks, study length 157 weeks) came out at 1.13 mg/kg/day; the TD50 (rat, strain Wistar, males, in drinking water, site: any site (literature study), lesion: several types, types named in the paper, dosed 157 weeks, study length 157 weeks) is 9.64 mg/kg/day; the TD50 (rat, strain Wistar, males, in drinking water, site: liver, lesion: several types, types named in the paper, dosed 157 weeks, study length 157 weeks) is 43.7 mg/kg/day. For the same compound, the carcinogen call by setting is: (mouse, strain Bor:NMRI, SPF-bred NMRI, females, in drinking water, site: any site (literature study), lesion: malignant tumor, dosed 104 weeks, study length 104 weeks) “negative (inactive)”; (mouse, strain Bor:NMRI, SPF-bred NMRI, males, in drinking water, site: any site (literature study), lesion: benign tumor, dosed 104 weeks, study length 104 weeks) “negative (inactive)”; (mouse, strain Bor:NMRI, SPF-bred NMRI, males, in drinking water, site: any site (literature study), lesion: malignant tumor, dosed 104 weeks, study length 104 weeks) “negative (inactive)”; (rat, strain Fischer 344, males, inhaled, site: nasal cavity, lesion: adenocarcinoma, dosed 52 weeks, study length 130 weeks) “positive”.
For the compound `C[C@]12CC[C@H]3C(=CCc4cc(OS(=O)(=O)O)ccc43)[C@@H]1CCC2=O`, the carcinogen call (rat, strain Charles River CD (Sprague-Dawley), females, in feed, site: liver, lesion: one or several types, types not named, dosed 104 weeks, study length 104 weeks) is “negative (inactive)” and the carcinogen call (rat, strain Charles River CD (Sprague-Dawley), males, in feed, site: liver, lesion: hepatoma, dosed 104 weeks, study length 104 weeks) was “negative (inactive)”.

What is called TD50 is the dose at which the toxic effect under study appears in half of the subjects.
